{
  "source": "patent US5594004A",
  "about": "“Compound with platelet aggregation inhibitor activity” (Meiji Seika Kabushiki Kaisha, priority 1993, dated 1997)",
  "system": "human PRP (platelet rich plasma)",
  "test": "Pharmacological test 1: inhibition of ADP-induced platelet aggregation in human PRP",
  "type": "cell-based",
  "settings": "platelet aggregation, ADP 5 μM inducer",
  "protocol": "Pharmacological test 1 Inhibition of platelet aggregation\nThe effect of the compound according to the present invention on inhibiting the platelet aggregation was examined with human PRP (platelet rich plasma).\nNine volumes of a blood sample was taken out of the vein of a normal human with a syringe in which one volume of a 3.8% sodium citrate solution was charged. The blood sample was centrifuged at 170×g at room temperature for 10 minutes. The supernatant thus obtained was isolated as PRP. The residual blood sample that PRP had been taken out was centrifuged at 2,700×g for 15 minutes. The supernatant was then taken as platelet poor plasma (PPP).\nPlatelet aggregation test was conducted with an aggligometer (PAM-8C; manufactured by MEBANICKS Co., Ltd.). Compounds to be tested were dissolved in a 50% DMSO saline, a 50% methanol saline or physiological saline. The compound and PRP were preincubated for 2 minutes. The ADP (CHRONO-PAR REAGENTS 384 ADP, CHRONO-LOG Corp.) was used as an inducer in the form of a dilution with saline so that the final concentration is 5 μM.\nAnti-platelet aggregation activity was obtained as an inhibition rate to platelet aggregation effect of ADP in the absence of a compound to be tested as follows: [formula] Physiological test 2 Inhibition of fibrinogen bonding to platelet GPIIb/IIIa",
  "note": "Where a name gives a salt, the structure may show the parent alone.",
  "data": [
    {"smiles": "O=C(O)COc1ccc(C(=O)CNC(=O)c2cc3c(s2)CCNC3)c(OCC(=O)O)c1", "note": "[Example 25, [[4-[[[(4,5,6,7-tetrahydrothieno[3.2-c]pyridin-2-yl)carbonyl]amino]acetyl]-m-phenylene]dioxy]diacetic acid trifluoroacetate]", "values": [
      {"measurement": "IC50", "setting": "Homo sapiens, Platelet", "value": 1500, "unit": "nM"}
    ]},
    {"smiles": "COc1cc(C(=O)CNC(=O)c2cc3c(s2)CCNC3)ccc1OCC(=O)O", "note": "[Example 26, 4-[[4,5,6,7-tetrahydrothieno[3.2-c]pyridin-2-yl)carbonyl]aminoacetyl]-2-methoxyphenoxyacetic acid trifluoroacetate]", "values": [
      {"measurement": "IC50", "setting": "Homo sapiens, Platelet", "value": 1000, "unit": "nM"}
    ]},
    {"smiles": "O=C(O)COc1ccc(C(=O)CNC(=O)c2sc3c(c2Cc2ccccc2)CNCC3)cc1OCC(=O)O", "note": "[Example 28, [[4-[[[(3-benzyl-4,5,6,7-tetrahydrothieno[3.2-c]pyridin-2-yl)carbonyl]amino]acetyl]-o-phenylene]dioxy]diacetic acid trifluoroacetate]", "values": [
      {"measurement": "IC50", "setting": "Homo sapiens, Platelet", "value": "> 10000", "unit": "nM"}
    ]},
    {"smiles": "O=C(O)COc1ccc(C(=O)CNC(=O)c2cc3c(s2)CCNC3)cc1OCC(=O)O", "note": "[Example 29, [[4-[[[(4,5,6,7-tetrahydrothieno[3.2-c]pyridin-2-yl)carbonyl]amino]acetyl]-o-phenylene]dioxy]diacetic acid trifluoroacetate]", "values": [
      {"measurement": "IC50", "value": 230, "unit": "nM"}
    ]},
    {"smiles": "O=C(O)COc1ccc(C(=O)CNC(=O)c2cc3c(s2)CCCNC3)cc1OCC(=O)O", "note": "[Example 30, [[4-[[[(5,6,7,8-tetrahydro-4H-thieno[3.2-c]azepin-2-yl)carbonyl]amino]acetyl]-o-phenylene]dioxy]diacetic acid trifluoroacetate]", "values": [
      {"measurement": "IC50", "setting": "Homo sapiens, Platelet", "value": 1900, "unit": "nM"}
    ]},
    {"smiles": "O=C(O)COc1ccc(C(=O)CNC(=O)c2cc3c(s2)CCNCC3)cc1OCC(=O)O", "note": "[Example 31, [[4-[[[(5,6,7,8-tetrahydro-4H-thieno[2,3-d]azepin-2-yl)carbonyl]amino]acetyl]-o-phenylene]dioxy]diacetic acid trifluoroacetate]", "values": [
      {"measurement": "IC50", "setting": "Homo sapiens, Platelet", "value": 150, "unit": "nM"}
    ]},
    {"smiles": "O=C(O)COc1ccc(C(=O)NCC(=O)c2cc3c(s2)CCNC3)cc1OCC(=O)O", "note": "[Example 32, [[4-[N-[(4,5,6,7-tetrahydrothieno[3,2-c]pyridin-2-yl)carbonyl]methyl]carbamoyl]-o-phenylene]dioxy]diacetic acid trifluoroacetate]", "values": [
      {"measurement": "IC50", "setting": "Homo sapiens, Platelet", "value": 480, "unit": "nM"}
    ]},
    {"smiles": "CCOC(=O)COc1ccc(CCNC(=O)c2cc3c(s2)CCNC3)cc1OCC(=O)OCC", "note": "[Example 33, Diethyl [[4-[[2-[(4,5,6,7-tetrahydrothieno[3,2-c]pyridin-2-yl)carbonyl]amino]ethyl]-o-phenylene]dioxy]diacetate trifluoroacetate]", "values": [
      {"measurement": "IC50", "setting": "Homo sapiens, Platelet", "value": 1700, "unit": "nM"}
    ]},
    {"smiles": "CCOC(=O)COc1ccc(C(=O)CNC(=O)c2cc3c(s2)CCNC3)cc1OCC(=O)OCC", "note": "[Example 34, Diethyl [[4-[[[(4,5,6,7-tetrahydrothieno[3,2-c]pyridin2-yl)carbonyl]amino]acetyl]-o-phenylene]dioxy]diacetate trifluoroacetate]", "values": [
      {"measurement": "IC50", "setting": "Homo sapiens, Platelet", "value": 930, "unit": "nM"}
    ]},
    {"smiles": "O=C(O)COc1ccc(C(=O)CNC(=O)CCCC2CCNCC2)cc1OCC(=O)O", "note": "[Example 36, [[4-[[N-[4-(piperidin-4-yl)butyryl]amino]acetyl]-o-phenylene]dioxy]diaceticacid trifluoroacetate]", "values": [
      {"measurement": "IC50", "setting": "Homo sapiens, Platelet", "value": 9000, "unit": "nM"}
    ]},
    {"smiles": "CN(CC(=O)c1ccc(OCC(=O)O)c(OCC(=O)O)c1)C(=O)CC1CCNCC1", "note": "[Example 37, [[4-[[N-[2-(piperidin-4-yl)acetyl]-N-methylamino]acetyl]-o-phenylene]dioxy]diacetic acid trifluoroacetate]", "values": [
      {"measurement": "IC50", "setting": "Homo sapiens, Platelet", "value": 4900, "unit": "nM"}
    ]},
    {"smiles": "O=C(O)CCc1ccc(C(=O)CNC(=O)CCC2CCNCC2)cc1", "note": "[Example 38, 3-[4-[N-[3-(piperidin-4-yl)propionyl]amino]acetyl]phenylpropionic acid trifluoroacetate]", "values": [
      {"measurement": "IC50", "setting": "Homo sapiens, Platelet", "value": 8000, "unit": "nM"}
    ]},
    {"smiles": "O=C(O)COc1ccc(CCNC(=O)c2cc3c(s2)CCNC3)cc1", "note": "[Example 39, 4-[2-[[(4,5,6,7-tetrahydrothieno[3,2-c]pyridin-2-yl)carbonyl]amino]ethyl]phenoxyacetic acid trifluoroacetate]", "values": [
      {"measurement": "IC50", "setting": "Homo sapiens, Platelet", "value": 260, "unit": "nM"}
    ]},
    {"smiles": "O=C(O)COc1ccc(CCNCc2cc3c(s2)CCNC3)cc1OCC(=O)O", "note": "[Example 40, [[4-[2-[N-[(4,5,6,7-tetrahydrothieno[3,2-c]pyridin-2-yl)methyl]amino]ethyl]-o-phenylene]dioxy]diacetic acid trifluoroacetate]", "values": [
      {"measurement": "IC50", "setting": "Homo sapiens, Platelet", "value": 4000, "unit": "nM"}
    ]},
    {"smiles": "CC(=O)N(CCc1ccc(OCC(=O)O)c(OCC(=O)O)c1)Cc1cc2c(s1)CCNC2", "note": "[Example 41, [[4-[2-[N-[(4,5,6,7-tetrahydrothieno[3,2-c]pyridin-2-yl)methyl]-N-acetylamino]ethyl]-o-phenylene]dioxy]diacetic acid trifluoroacetate]", "values": [
      {"measurement": "IC50", "setting": "Homo sapiens, Platelet", "value": 3300, "unit": "nM"}
    ]},
    {"smiles": "Cc1oc(=O)oc1COC(=O)COc1ccc(C(=O)CNC(=O)c2cc3c(s2)CCNC3)cc1OCC(=O)OCc1oc(=O)oc1C", "note": "[Example 42, Di-(5-methyl-2-oxodioxol-4-yl)methyl [[4-[[(4,5,6,7-tetrahydrothieno[3,2-c]pyridin-2-yl)-carbonyl]amino]acetyl]-o-phenylene]dioxy]diacetic acid trifluoroacetate]", "values": [
      {"measurement": "IC50", "setting": "Homo sapiens, Platelet", "value": 340, "unit": "nM"}
    ]},
    {"smiles": "O=C(O)COc1ccc(-c2cnc(CCC3CCNCC3)o2)cc1OCC(=O)O", "note": "[Example 43, [[4-[2-[2-(piperidin-4-yl)ethyl]oxazol-5-yl]-o-phenylene]dioxy]diacetic acid 1/2 sulfate]", "values": [
      {"measurement": "IC50", "setting": "Homo sapiens, Platelet", "value": 2800, "unit": "nM"}
    ]},
    {"smiles": "O=C(O)COc1ccc(C(=O)CNC(=O)c2cc3c(s2)CCNC3)nc1", "note": "[Example 44, 2-[[4,5,6,7-tetrahydrothieno[3,2-c]pyridin-2-yl)carbonylamino]acetyl]pyridin-5-yloxyacetic acid trifluoroacetate]", "values": [
      {"measurement": "IC50", "setting": "Homo sapiens, Platelet", "value": 720, "unit": "nM"}
    ]},
    {"smiles": "O=C(O)COc1ccc(C(O)CNC(=O)c2cc3c(s2)CCNC3)cc1OCC(=O)O", "note": "(centres unmarked) [Example 45, [[4-[[2-[(4,5,6,7-tetrahydrothieno[3,2-c]pyridin-2-yl)carbonyl]amino]-1-hydroxyethyl]-o-phenylene]dioxy]diacetic acid trifluoroacetate]", "values": [
      {"measurement": "IC50", "setting": "Homo sapiens, Platelet", "value": 460, "unit": "nM"}
    ]},
    {"smiles": "O=C(O)COc1ccc(-c2nc(C(=O)c3cc4c(s3)CCNC4)cs2)cc1", "note": "[Example 47, 4-[[4-(4,5,6,7-tetrahydrothieno[3,2-c]pyridin-2-yl)carbonyl]thiazol-2-yl]phenoxyacetic acid trifluoroacetate]", "values": [
      {"measurement": "IC50", "setting": "Homo sapiens, Platelet", "value": 6400, "unit": "nM"}
    ]},
    {"smiles": "CCCCOC(=O)COc1ccc(C(=O)CNC(=O)c2cc3c(s2)CCNC3)cc1OCC(=O)OCCCC", "note": "[Example 56, Di-n-butyl [[4-[[[(4,5,6,7-tetrahydrothieno [3,2-c]pyridin-2-yl)carbonyl]amino]acetyl]-o-phenylene]dioxy]diacetate trifluoroacetate]", "values": [
      {"measurement": "IC50", "setting": "Homo sapiens, Platelet", "value": 1100, "unit": "nM"}
    ]},
    {"smiles": "O=C(COc1ccc(C(=O)CNC(=O)c2cc3c(s2)CCNC3)cc1OCC(=O)OC1CCCCC1)OC1CCCCC1", "note": "[Example 57, Dicyclohexyl [[4-[[[(4,5,6,7-tetrahydrothieno[3,2-c]pyridin-2-yl)carbonyl]amino]acetyl]-o-phenylene]dioxy]diacetate]", "values": [
      {"measurement": "IC50", "setting": "Homo sapiens, Platelet", "value": 3200, "unit": "nM"}
    ]},
    {"smiles": "CN(CC(=O)c1ccc(OCC(=O)O)c(OCC(=O)O)c1)C(=O)[C@H]1CC[C@H](C(=N)N)CC1", "note": "[Example 58, [[4-[[[trans-4-amidinocyclohexyl]carbonyl-N-methylamino]acetyl]-o-phenylene]dioxy]diacetic acid trifluoroacetate]", "values": [
      {"measurement": "IC50", "setting": "Homo sapiens, Platelet", "value": 140, "unit": "nM"}
    ]}
  ]
}
